Measured values from patent US20150025234A1, “GANGLIOSIDE COMPOSITIONS” (priority 2013, published 2015).
“Also recorded” adds a separate entry of the source.

Key:
[1] = system: HT22 (mouse hippocampal) cells; details: J. Neurochem. 119:839-847 (2011); cited from earlier work
[2] = system: Adult Human Bone Marrow Cells; assay: CLQ treatment of adult human bone marrow cells, CTB-Alexa488 staining (Example 2); assay type: cell-based; details: 50 uM CLQ, 48 h, CTB-Alexa488, FIG. 2; listed as CLQ
[3] = system: PC12 (rat adrenal medulla tumor) cells; details: FEBS Lett. 580:6972-6976 (2006); cited from earlier work
[4] = system: human bone marrow-derived cells (HBM); assay type: cell-based
[5] = system: Parkinson's disease subjects; details: cited from earlier work

Row | Compound | GM1 levels [1] | accumulation of GM1 vs control [2] | accumulation [3] | up-regulation of GM1 expression vs control [4] | safety of long-term use ([5]; five-year study, J. Neurol. Sci. 292:45-51 (2010)) | effect on symptoms ([5]; short-term treatment, Neurology 50:1630-1636 (1998))
1 | CCN(CC)CCCC(C)Nc1ccnc2cc(Cl)ccc12 (stereo not drawn) [Chloroquine, chloroquine] | only moderately increased GM1 levels | significantly higher accumulation of GM1; also recorded: abundant and intense compared to control conditions | induce accumulation | approximately 8 fold |  | 
2 | GM1 |  |  |  |  | safe | significant symptom reduction
